Where two headings read alike, the source gives them in different places.
How the values were obtained:
[1] = tested on: CTZ‐resistant P. aeruginosa (n = 2); type: cell-based
Procedure: The minimum inhibitory concentration (MIC) of the β‐lactam–peptide conjugates was determined by broth microdilution as previously described.^[ [17] ^] Briefly, in cation‐adjusted MHB II medium, a twofold serial dilution of the compounds was prepared in 96‐well round‐bottom polystyrene or polypropylene microtiter plates with each well containing 50 µL. The plates were inoculated with 50 µL bacterial suspension and the final inoculum, in a total volume of 100 µL, contained 5 × 10^5 CFU mL^−1. The microplates were incubated for 20 h at 37 ± 1 °C. The lowest concentration preventing visible bacterial growth was considered the MIC value. For susceptibility testing of combinations of β‐lactamase‐inhibitors with either a β‐lactam antibiotic or a β‐lactam–peptide conjugate, fixed concentrations of the inhibitors according to the EUCAST (European Committee on Antimicrobial Susceptibility Testing) guidelines (clavulanic acid = 2 mg L^−1, avibactam = 4 mg L^−1) were used.

HEPG2 cells = experiment: Cytotoxicity assay (PrestoBlue viability); type: cell-based, human; conditions: HEPG2, up to 512 µg mL^−1, 24 h
Procedure: (§1) To exclude any cytotoxic effects on mammalian cells prior to in vivo studies, the viability of the cell lines HEP‐G2 (hepatocellular carcinoma) and HEK‐293 (human […] embryonal kidney) after incubation with different concentrations of the β‐lactam–peptide conjugates were determined. For the viability assay, 10^4 cells per well were seeded in a 96‐well half area microplate and incubated overnight in a humidified 5% CO2 atmosphere at 37 °C. The next day, the conjugates were twofold serially diluted in PBS and added to the cells to obtain final concentrations ranging from 1–512 µg mL^−1. Cells were then incubated with the antibiotics in a humidified 5% CO2 atmosphere at 37 °C for a further 24 h. PrestoBlue HS Cell Viability Reagent was then added to the wells and the plates again were incubated in a humidified 5% CO2 atmosphere at 37 °C for 1 h. Afterwards, the absorption at 570 nm and 600 nm (reference) using an Infinite M200 PRO microplate reader (Tecan, Männedorf, Switzerland) was measured. Cell viability was calculated using the untreated control cells as a reference for 100% alive cells.

HEK‐293 cells = experiment: Cytotoxicity assay (PrestoBlue viability); type: cell-based, human; conditions: HEK‐293, up to 512 µg mL^−1, 24 h
Procedure: as §1

B. subtilis DSM 10 = experiment: Time‐kill assay; type: cell-based; conditions: for killing mechanism (time‐kill kinetics, CFU mL^−1): 50 or 100 µM, over 24 h
Procedure: For determination of time‐kill kinetics of the β‐lactam–peptide conjugates and their parent β‐lactams, 14 mL of cation‐adjusted MHB II medium was inoculated with an B. subtilis DSM 10 overnight culture to obtain an OD600 of 0.5, corresponding to ≈10^8 CFU mL^−1. To this exponentially growing culture, 50 or 100 µM of each of the antibiotics was added except for a negative control culture which was treated with only water. The bacterial cultures were incubated at 30 °C and 200 rpm and the OD600 was measured on 1 mL aliquots taken at 0, 10, 30, 45, 60, 90, 120, 240, 360, 480 and 1440 min. Additionally, at the same time points, 15 µL of serial tenfold dilutions of the bacterial suspension were plated onto MHB II agar plates. The agar plates were incubated overnight at 30 °C. The next day, bacterial colonies were counted and the CFU mL^−1 were calculated (limit of detection: 10^1.8 CFU mL^−1). For each antibiotic the assay was performed in triplicate (three biological replicates).

[2] = tested on: E. casseliflavus (ATCC 700 327); experiment: Spontaneous resistance rate; type: cell-based; conditions: E. casseliflavus ATCC 700 327, agar with 16 µg mL^−1 CTZ‐R6
Procedure: The rate of spontaneous resistance of E. casseliflavus (ATCC 700 327) against CTZ‐R6 was investigated as previously described.^[ [33] ^] A bacterial suspension of ATCC 700 327 was adjusted to an OD600 of 1 with 0.9% NaCl, corresponding to a theoretical concentration of 2 × 10^8 CFU mL^−1. 250 µL of the suspension were plated on 10 cation‐adjusted MHB II agar plates containing 16 µg mL^−1 CTZ‐R6 and incubated at 37 °C for 18 h. As concentration control, the bacterial inoculum (OD600 = 1) was diluted and plated on antibiotic‐free cation adjusted MHB II agar plates and incubated at 37 °C for 18 h. The number of colonies on both types of plates was counted and the spontaneous resistance rate was calculated accordingly: (2) SpontaneousResistanceRate=#coloniesonantibioticplates/#coloniesoncontrolplatexdilutionfactorx2.5

[3] = Scintigraphy and biodistribution in rats; parameters: species or system Wistar rats; conditions: rat, in vivo, iv
Procedure: To enable radiolabeling of the β‐lactam–peptide conjugates, their peptide sequence was elongated by an N‐terminal D‐tyrosine. […] The solution was mixed with 5 MBq of iodine‐125 and radiolabeling was performed using the chloramine T method as previously described.^[ [35] ^] After 30 s, the reaction was quenched by the addition of a saturated methionine solution and the radiolabeled compound purified by reversed‐phase preparative radio‐HPLC (1100 series, Agilent Technologies, Santa Clara, CA, USA). Analysis was performed by analytical radio‐HPLC (1100 series, Agilent Technologies, Santa Clara, CA, USA) using a linear gradient from water (+ 0.1% TFA) to acetonitrile (+ 0.1% TFA) over 5 min at a flow rate of 2 mL min^−1.
All animal studies were approved by the Animal Care and Use committees from Regierungspräsidium Karlsruhe (Karlsruhe, Germany; reference number 35–9185.81/G‐199/21; date of approval: November 23, 2021). […]
The biodistribution of CTZ‐yR6 in Wistar rats was determined at 10 min and 3 h post injection. […] Using a Cobra γ‐counter (Packard Bioscience, Meriden, CT, USA), the amount of radioactivity in each sample was measured which was then used in combination with the organ weight and injected dose for the calculation of the […] per gram of tissue (%ID g^−1).

| SMILES | MIC range ([1]; CTZ‐resistant P. aeruginosa (n = 2)) | cytotoxicity (cell viability) (HEPG2 cells) | cytotoxicity (cell viability) (HEK‐293 cells) | killing mechanism (time‐kill kinetics, CFU mL^−1) (B. subtilis DSM 10) | MIC range ([1]; CTZ‐resistant (n = 2, 20 h)) | spontaneous resistance rate [2] | drop in CFU (to the detection limit) (B. subtilis DSM 10; 100 µM, after 6 h) | biodistribution (organ accumulation) [3] |
| --- | --- | --- | --- | --- | --- | --- | --- | --- |
| CC(C)(O/N=C(\C(=O)N[C@@H]1C(=O)N2C(C(=O)[O-])=C(C[n+]3ccccc3)CS[C@H]12)c1csc(N)n1)C(=O)O [CTZ, ceftazidime, reference compound] | 32 to 64 µg/mL | no significant cytotoxicity | no significant cytotoxicity | time‐dependent killing mechanism |  |  |  |  |
| CC(C)(O/N=C(\C(=O)N[C@@H]1C(=O)N2C(C(=O)[O-])=C(C[n+]3ccccc3)CS[C@H]12)c1csc(N)n1)C(=O)NCCCCCCN1C(=O)CC(SC[C@H](NC(=O)[C@H](CCCNC(=N)N)NC(=O)[C@H](CCCNC(=N)N)NC(=O)[C@H](CCCNC(=N)N)NC(=O)[C@H](CCCNC(=N)N)NC(=O)[C@H](CCCNC(=N)N)NC(=O)[C@@H](N)CCCNC(=N)N)C(N)=O)C1=O (stereo partly drawn) [CTZ-R6] |  |  |  | concentration‐dependent killing mechanism | 2 to 16 µg/mL | < 2.7 × 10^−9 | 6 log units | accumulated in the liver and in the kidneys |

Reference: paper PMC11672299, “Conjugation of Polycationic Peptides Extends the Efficacy Spectrum of β‐Lactam Antibiotics” (Advanced Science, 2024)
